Results from paper PMC8022858, “Discovery of bone morphogenetic protein 7-derived peptide sequences that attenuate the human osteoarthritic chondrocyte phenotype” (Molecular Therapy. Methods & Clinical Development, 2021).

What was measured:
[1] = test system: OA-HAC pool; test: Alanine scanning of peptide p[63-82], gene expression and bioactivity score; type: cell-based, human; conditions: pool of 18 OA-HACs, 100 nM; for impact of alanine substitution on peptide p[63-82] bioactivity (bioactivity score): 24 h, score = sum of fold change of COL10A1, ALPL, MMP13, COL2A1, NKX3-2 versus wild-type (Figure 5C)
Protocol: Figure 5 Molecular characterization of peptides p[63−82] and p[113−132] (A) A pool of OA-HACs (n = 4 donors) was transfected with a scrambled siRNA or with an NKX3-2 siRNA (100 nM siRNA) and cultured for 24 h. Cultures were then exposed to peptide p[63−82] or p[113−132] (100 nM peptide). Samples were harvested 24 h later and analyzed for the expression of the indicated mRNAs (normalized to 28S rRNA). (B) SW1353 chondrocytic cells were transfected with BRE (SMAD1/5/8 reporter) or CAGA12 (SMAD2/3 reporter) firefly luciferase-reporter plasmids. A CMV-Gaussia plasmid was cotransfected as a transfection control. Cells were then cultured for 24 h and subsequently exposed to control, p[63−82], or p[113−132] for 8 h. Firefly and Gaussia bioluminescence were measured in cells and medium (respectively), and relative light units (RLUs) of firefly luciferase were normalized for the Gaussia luciferase signal. The normalized firefly luciferase signal of the control condition was set at 1, and peptide conditions were calculated relative to the control condition (FL/GL). Error bars represent mean ± SEM; statistical significance for peptide conditions versus siScrambled or siNKX3-2 (A) or control condition (B) as determined by unpaired two-tailed Student’s t test is represented as ∗p < 0.05, ∗∗p < 0.01, and ∗∗∗p < 0.001. (C) An alanine scanning library of peptide p[63−82] was synthesized, and the pool of 18 OA-HACs originally used for the full library scanning (Figure 1) was exposed to individual peptides from the alanine scanning library (100 nM peptide) for 24 h. An alanine-scanning bioactivity score (sum of the fold change gene expression of COL10A1, ALPL, MMP13, and COL2A1 plus NKX3-2 of the alanine-substituted peptides versus the wild-type p[63−82] peptide) was calculated for each alanine substitution in the amino acid sequence of peptide p[63−82] and is represented by the height of each letter on the y axis (data in Figure S4). (D) Multiple sequence alignment of the human BMP7 p[63−82] peptide with the homologous region in BMP7 of other species.
We aimed to further understand the sequence dependency of the peptide bioactivity. Peptide p[63−82] was derived from the central region within BMP7, and since this yielded a limited series of bioactive peptides (Figures 1B and S2), we further focused our analyses on peptide p[63−82]. To determine which amino acids are important for the bioactivity of peptide p[63−82], an alanine-scanning peptide library was synthesized, based on systematic alanine substitution of consecutive amino acids in the peptide p[63−82] sequence (Table S1). This alanine-scanning library was then screened by exposing an OA-HAC pool (the same pool that was used for the full library scanning in Figure 1) for 24 h to 100 nM of each peptide in the alanine-scanning library. The bioactivity of each peptide was determined by measuring gene expression of COL10A1, ALPL, MMP13, COL2A1, and NKX3-2 (Figure S4). Changes in the bioactivity of the alanine-scanning library peptides were combined into a “bioactivity score” of each individual substituted amino acid in the parental p[63−82] peptide (Figure 5C). […] The region in BMP7 from which peptide p[63−82] was derived and the G7 position in it are evolutionary highly conserved, as determined by sequence alignment of BMP7 sequences from various animal species (Figure 5D).
For the peptide-screening and alanine-scanning experiments, cDNA was prepared using the Cells-to-Ct kit (Invitrogen) according to the manufacturer’s protocol. For the other experiments, cells or homogenized tissues (Mikro-Dismembrator; Braun Biotech International) were lysed in TRIzol (Life Technologies) and RNA isolation and cDNA synthesis were performed as described earlier.[27]^,[57] Quantitative real-time PCR was performed using Takyon qPCR Master Mix plus blue for SYBR Green (Eurogentec). […]

[2] = test system: primary human OA articular chondrocytes (OA-HACs); test: BMP7 peptide library screening, quantitative real-time PCR of OA chondrocyte phenotype genes; type: cell-based; conditions: pool of 18 OA-HAC donors, scrambled peptides 100 nM, 24 h (Figure 2G)
Source text: To investigate whether BMP7 harbors potential peptide sequences that improve the OA chondrocyte phenotype, a peptide library was designed from the mature 139 amino acid-long human BMP7 sequence (Table S2). The peptide library was designed as 20-mer peptides with 2 amino acid intervals (18 amino acid overlap) between individual peptides and with all cysteine residues substituted by serine residues to avoid uncontrolled oxidation of cysteine groups. This yielded 61 individual peptides covering the complete mature human BMP7 sequence (Figure 1A). The peptide library was screened using a pool of primary human OA articular chondrocytes (OA-HACs) from 18 individual donors. Prior to pooling, individual OA-HAC isolates were tested for their responsiveness to BMP7 (Figure S1). The screening was conducted by exposing the OA-HAC pool for 24 h to a concentration series (1, 10, 100, or 1,000 nM) of each peptide from the library. […] This is defined as reduced expression of collagen type X alpha 1 chain (COL10A1), alkaline phosphatase (ALPL), Runt-related transcription factor 2 (RUNX2), ADAMTS5, MMP13, prostaglandin-endoperoxide synthase 2 or cyclooxygenase-2 (COX-2), and interleukin 6 (IL6) and increased expression of SRY-box transcription factor 9 (SOX9), COL2A1, and NKX3-2. […] Representative peptides inducing the above gene expression characteristics in OA-HACs were selected from both regions for further investigation. These were peptide p[63−82] and p[113−132] from the library, covering amino acids 63−82 and 113−132 of the mature BMP7 amino acid sequence. The complete quantitative real-time PCR data for peptides p[63−82] and p[113−132] […] For the two candidate peptides, we validated data using an independent cohort of three OA-HACs exposed to 100 nM of p[63−82] or p[113−132] or a combination of both peptides. […] Taken together, two regions in BMP7 were identified delivering peptide sequences that are able to improve the OA chondrocyte phenotype.
Figure 1 BMP7 peptide library screening on primary human OA articular chondrocytes (OA-HACs) (A) Schematic representation of the design of the human BMP7 peptide library. (B) COL10A1 mRNA expression in samples from the library screening on a pool of 18 OA-HACs individually exposed for 24 h to the peptides (100 nM) in the library. Data are shown as compared to the control condition (white bar) and full-length BMP7 (1 nM; gray bar). The two blue bars represent candidate peptides p[63−82] and p[113−132]. […] Error bars represent mean ± SEM, and statistical significance for peptide condition or BMP7 versus control condition as determined by unpaired two-tailed Student’s t test is represented as ∗p < 0.05, ∗∗p < 0.01, and ∗∗∗p < 0.001; NS, not significant.
Figure 2 Bioactivity of BMP7-derived peptides p[63−82] and p[113−132] on OA-HACs Complete peptide library screening quantitative real-time PCR dataset for peptides p[63−82] and p[113−132] is presented. (A) SOX9, COL2A1, and NKX3-2 mRNA expression in the 18 OA-HAC pool exposed to 1,000, 100, 10, or 1 nM of peptide p[63−82] and p[113−132] is shown and presented relative to control (black bars) and alongside full-length BMP7 (white bars). (B) Similar to (A) but for chondrocyte hypertrophy-associated genes RUNX2, COL10A1, and ALPL. (C) Similar to (A) but for cartilage extracellular matrix remodeling-associated genes MMP13 and ADAMTS5 and inflammation-related genes COX-2 and IL-6. (D) Glycosaminoglycan (GAG) content (normalized to total protein content) on an independent cohort of three individual OA-HAC donors treated with 100 nM peptides p[63−82] and p[113−132] for 24 h. (E) Alkaline phosphatase (ALP) activity (normalized to total protein content) in similar samples from (D). (F) Prostaglandin E2 (PGE2) levels in culture supernatant in similar samples from (D). […]

Substance: H-AAYYSEAESAFPLNSYMNAT-OH [G7A, alanine-scanning peptide of p[63−82], substitution position 07]
- response on chondrocyte hypertrophy ([1]; 24 h (Figure S4)): reciprocal response
- impact on the chondrocyte phenotype-modulating action of the peptide ([1]; 24 h (Figures 5C, S4)): largest impact
- impact of alanine substitution on peptide p[63-82] bioactivity (bioactivity score) [1]: important impact

Substance: H-AAYYSEGESAFPLNSYANAT-OH [M17A, alanine-scanning peptide of p[63−82], substitution position 17]
- impact of alanine substitution on peptide p[63-82] bioactivity (bioactivity score) [1]: important impact

Substance: H-AAYYSEGESAFPLNSAMNAT-OH [Y16A, alanine-scanning peptide of p[63−82], substitution position 16]
- impact of alanine substitution on peptide p[63-82] bioactivity (bioactivity score) [1]: important impact

Substance: H-AAAYSEGESAFPLNSYMNAT-OH [Y3A, alanine-scanning peptide of p[63−82], substitution position 03]
- impact of alanine substitution on peptide p[63-82] bioactivity (bioactivity score) [1]: important impact

Substance: H-AAYYSEGASAFPLNSYMNAT-OH [E8A, alanine-scanning peptide of p[63−82], substitution position 08]
- impact of alanine substitution on peptide p[63-82] bioactivity (bioactivity score) [1]: important impact

Substance: H-AAYYSEGESAAPLNSYMNAT-OH [F11A, alanine-scanning peptide of p[63−82], substitution position 11]
- impact of alanine substitution on peptide p[63-82] bioactivity (bioactivity score) [1]: important impact

Substance: H-VYISNVDDYSNKFLLKVRSM-OH [scrambled p[113−132], scrambled version of peptide p[113−132], reference compound]
- sequence specificity: expression of COL2A1, RUNX2, COL10A1, and COX-2 [2]: neither one of them was able to recapitulate the bioactivity
